Structures are written as SMILES.

What all share (experiment): KINOMEscan competition binding
One assay concerns the target T1, CASK (Homo sapiens, UniProt O14936).
T1 sequence (O14936 1-926): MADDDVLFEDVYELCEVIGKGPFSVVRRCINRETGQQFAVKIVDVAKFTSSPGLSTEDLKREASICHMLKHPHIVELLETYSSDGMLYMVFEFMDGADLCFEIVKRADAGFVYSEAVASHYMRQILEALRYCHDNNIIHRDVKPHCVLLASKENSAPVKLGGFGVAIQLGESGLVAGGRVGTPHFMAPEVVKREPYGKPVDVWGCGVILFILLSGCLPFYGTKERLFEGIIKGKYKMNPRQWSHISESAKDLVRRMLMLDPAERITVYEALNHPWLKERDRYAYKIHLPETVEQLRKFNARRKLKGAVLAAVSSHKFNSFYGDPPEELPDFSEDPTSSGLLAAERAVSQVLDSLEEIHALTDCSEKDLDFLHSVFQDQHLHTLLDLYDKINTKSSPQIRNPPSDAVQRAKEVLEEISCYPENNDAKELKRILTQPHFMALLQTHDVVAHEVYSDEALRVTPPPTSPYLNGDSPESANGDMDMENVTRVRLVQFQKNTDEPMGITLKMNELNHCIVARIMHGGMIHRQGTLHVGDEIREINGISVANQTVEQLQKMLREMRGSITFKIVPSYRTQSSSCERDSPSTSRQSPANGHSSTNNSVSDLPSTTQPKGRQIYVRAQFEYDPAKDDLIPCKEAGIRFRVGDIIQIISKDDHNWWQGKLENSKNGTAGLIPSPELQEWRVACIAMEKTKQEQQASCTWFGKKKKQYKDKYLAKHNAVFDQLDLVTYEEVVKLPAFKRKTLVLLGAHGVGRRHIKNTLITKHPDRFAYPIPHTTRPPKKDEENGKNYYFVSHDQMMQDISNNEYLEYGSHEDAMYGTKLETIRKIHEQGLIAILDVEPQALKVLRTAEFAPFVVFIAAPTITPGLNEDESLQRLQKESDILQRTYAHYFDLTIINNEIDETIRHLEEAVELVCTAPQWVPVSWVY
To be noted: read-out: %Inh CASK.

For the next assay, the target named is ABL2 (Homo sapiens, UniProt P42684). To be noted: read-out: %Inh ABL2.
ABL2, sequence (P42684 whole entry): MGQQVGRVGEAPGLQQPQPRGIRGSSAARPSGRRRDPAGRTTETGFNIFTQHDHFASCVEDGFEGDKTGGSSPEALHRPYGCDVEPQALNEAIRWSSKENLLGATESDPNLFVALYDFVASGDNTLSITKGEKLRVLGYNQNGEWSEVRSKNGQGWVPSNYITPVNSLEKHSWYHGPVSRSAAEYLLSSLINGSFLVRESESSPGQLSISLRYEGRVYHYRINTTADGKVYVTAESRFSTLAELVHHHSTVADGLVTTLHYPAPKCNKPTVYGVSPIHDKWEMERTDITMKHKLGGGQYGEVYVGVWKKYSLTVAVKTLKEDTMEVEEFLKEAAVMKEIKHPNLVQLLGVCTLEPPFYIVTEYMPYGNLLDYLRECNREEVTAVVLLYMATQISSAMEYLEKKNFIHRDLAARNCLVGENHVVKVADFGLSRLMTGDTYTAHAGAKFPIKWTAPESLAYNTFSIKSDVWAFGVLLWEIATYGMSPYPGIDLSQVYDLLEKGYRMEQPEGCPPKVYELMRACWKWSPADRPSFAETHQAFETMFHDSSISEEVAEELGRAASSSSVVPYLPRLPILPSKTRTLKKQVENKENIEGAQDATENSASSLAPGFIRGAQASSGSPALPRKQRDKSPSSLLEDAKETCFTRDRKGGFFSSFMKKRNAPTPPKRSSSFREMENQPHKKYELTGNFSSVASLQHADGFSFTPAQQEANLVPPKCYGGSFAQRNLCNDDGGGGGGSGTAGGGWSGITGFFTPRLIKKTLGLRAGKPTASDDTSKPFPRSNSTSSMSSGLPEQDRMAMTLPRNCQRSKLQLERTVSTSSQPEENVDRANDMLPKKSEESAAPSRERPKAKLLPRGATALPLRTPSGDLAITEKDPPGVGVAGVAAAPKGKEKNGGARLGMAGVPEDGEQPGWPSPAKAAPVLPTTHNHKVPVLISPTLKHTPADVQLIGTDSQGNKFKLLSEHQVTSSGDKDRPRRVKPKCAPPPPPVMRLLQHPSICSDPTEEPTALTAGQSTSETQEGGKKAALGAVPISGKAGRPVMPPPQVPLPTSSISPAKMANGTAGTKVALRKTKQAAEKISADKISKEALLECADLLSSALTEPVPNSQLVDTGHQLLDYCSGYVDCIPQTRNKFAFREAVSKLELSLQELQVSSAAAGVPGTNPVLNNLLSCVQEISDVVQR
A further assay deals with T2, EPHB1 (Homo sapiens, UniProt P54762).
T2 sequence (P54762 18-984): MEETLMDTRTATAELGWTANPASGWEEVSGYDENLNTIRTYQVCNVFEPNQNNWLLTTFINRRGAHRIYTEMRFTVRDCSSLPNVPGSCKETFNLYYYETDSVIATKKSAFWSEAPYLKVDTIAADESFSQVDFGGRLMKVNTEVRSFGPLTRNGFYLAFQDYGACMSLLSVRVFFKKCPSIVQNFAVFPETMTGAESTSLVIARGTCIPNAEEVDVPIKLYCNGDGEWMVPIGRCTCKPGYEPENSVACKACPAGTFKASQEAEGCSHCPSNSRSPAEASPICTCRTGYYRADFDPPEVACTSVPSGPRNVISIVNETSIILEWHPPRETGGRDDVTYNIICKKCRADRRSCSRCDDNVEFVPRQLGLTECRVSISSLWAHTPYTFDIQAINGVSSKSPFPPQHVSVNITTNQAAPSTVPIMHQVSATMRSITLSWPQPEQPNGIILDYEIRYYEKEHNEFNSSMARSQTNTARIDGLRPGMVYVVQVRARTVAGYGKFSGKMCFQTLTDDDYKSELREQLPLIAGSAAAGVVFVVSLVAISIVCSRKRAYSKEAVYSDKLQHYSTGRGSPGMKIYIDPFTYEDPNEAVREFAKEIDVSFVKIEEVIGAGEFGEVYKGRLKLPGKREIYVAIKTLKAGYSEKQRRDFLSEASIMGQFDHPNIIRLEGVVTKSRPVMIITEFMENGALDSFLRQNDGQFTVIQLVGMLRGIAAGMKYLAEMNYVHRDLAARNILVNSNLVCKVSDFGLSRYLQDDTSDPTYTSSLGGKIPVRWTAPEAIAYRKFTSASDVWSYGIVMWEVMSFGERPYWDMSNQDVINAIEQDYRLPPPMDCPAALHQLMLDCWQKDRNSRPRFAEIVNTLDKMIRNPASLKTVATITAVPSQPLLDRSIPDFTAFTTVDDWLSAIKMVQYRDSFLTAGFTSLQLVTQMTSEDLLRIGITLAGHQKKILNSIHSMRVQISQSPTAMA
To be noted: read-out: %Inh EPHB1.

A further assay has as its target T3, HUNK (Homo sapiens, UniProt P57058).
T3 sequence (P57058 1-714): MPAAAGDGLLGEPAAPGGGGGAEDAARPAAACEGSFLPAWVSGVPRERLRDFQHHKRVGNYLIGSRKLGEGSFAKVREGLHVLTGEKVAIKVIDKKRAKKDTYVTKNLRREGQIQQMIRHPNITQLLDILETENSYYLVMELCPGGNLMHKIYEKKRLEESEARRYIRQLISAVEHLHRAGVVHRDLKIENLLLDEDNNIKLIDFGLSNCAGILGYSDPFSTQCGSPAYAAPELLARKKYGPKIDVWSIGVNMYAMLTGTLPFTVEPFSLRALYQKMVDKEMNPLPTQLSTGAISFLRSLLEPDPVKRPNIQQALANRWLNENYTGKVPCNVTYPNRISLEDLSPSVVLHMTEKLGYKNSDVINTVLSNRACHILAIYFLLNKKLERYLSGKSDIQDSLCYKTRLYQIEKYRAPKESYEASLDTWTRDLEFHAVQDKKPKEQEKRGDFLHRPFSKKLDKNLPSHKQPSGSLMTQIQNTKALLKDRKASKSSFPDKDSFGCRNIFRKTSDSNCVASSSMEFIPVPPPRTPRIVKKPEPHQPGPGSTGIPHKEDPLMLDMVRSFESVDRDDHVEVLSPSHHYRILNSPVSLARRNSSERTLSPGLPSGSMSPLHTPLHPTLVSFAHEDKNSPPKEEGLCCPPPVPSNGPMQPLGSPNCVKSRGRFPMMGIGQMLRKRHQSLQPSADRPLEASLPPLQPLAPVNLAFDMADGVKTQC
To be noted: read-out: %Inh HUNK.

With `Cn1cc(-c2cnc(N)c3c(-c4ccc5c(c4)CCN5C(=O)Cc4ccccc4)csc23)cn1` [UNC10225012A], the inhibition at 1 µM at CASK came out at 23%; on ABL2, 81%; on EPHB1, 6%; on HUNK it was 0%.
Taken in the same sequence, the figures for `CS(=O)(=O)Cc1ccc(Nc2nccc(-c3c(-c4cccc(NC(=O)C5CCCCC5)c4)nn4ncccc34)n2)cc1` [UNC10225159A] were 34%, 5%, 2% and 7%.
Regarding `Cc1ccc(NC(=O)Nc2cccc(C(F)(F)F)c2)cc1` [UNC10225187A], the inhibition at 1 µM at CASK stood at 15%; on ABL2, 3%; on EPHB1 it was 5%; at HUNK, 0%.
For the molecule `COc1cccc(OC)c1C(=O)Nc1cccc(-c2nn3ccccc3c2-c2ccnc(Nc3cccc(F)c3)n2)c1` [UNC10225310A], the inhibition at 1 µM at CASK is 15%; on ABL2, 100%; at EPHB1 it was 100%; on HUNK, 15%.
In the case of `O=c1cc(N2CCOCC2)nc2n(Cc3cccc(Cl)c3Cl)c(C3CC3)nn12` [UNC10225469A], the inhibition at 1 µM on CASK is 26%; on ABL2, 5%; on EPHB1 it was 0%; on HUNK it was 0%.

(Values after paper PMC5540273, “Progress towards a public chemogenomic set for protein kinases and a call for contributions” (PLoS ONE, 2017).)
